According to ChEMBL document CHEMBL5241120, “Insights into the medicinal chemistry of heterocycles integrated with a pyrazolo[1,5-a]pyrimidine scaffold” (RSC Med Chem, 2022):
Converted amounts (≈) assume the structure as drawn.

Tests used:
MCF7 = assay: Cytotoxicity against human MCF7 cells by MTT assay; type: functional, cell-based
HepG2 = assay: Cytotoxicity against human HepG2 cells by MTT assay; type: functional, cell-based
HCT-116 = assay: Cytotoxicity against human HCT-116 cells by MTT assay; type: functional, cell-based
HeLa = assay: Cytotoxicity against human HeLa cells by MTT assay; type: functional, cell-based
SiHa = assay: Cytotoxicity against human SiHa cells by MTT assay; type: functional, cell-based
Aspergillus niger [1] = assay: Antifungal activity against Aspergillus niger assessed as zone of inhibition; type: functional
Escherichia coli [2] = assay: Antibacterial activity against Escherichia coli assessed as zone of inhibition; type: functional
Bacillus subtilis [3] = assay: Antibacterial activity against Bacillus subtilis assessed as zone of inhibition; type: functional
Candida albicans = assay: Antifungal activity against Candida albicans assessed as zone of inhibition; type: functional
Pseudomonas aeruginosa [4] = assay: Antibacterial activity against Pseudomonas aeruginosa; type: functional
Staphylococcus aureus [5] = assay: Antibacterial activity against Staphylococcus aureus assessed as zone of inhibition; type: functional
Escherichia coli [6] = assay: Antibacterial activity against Escherichia coli; type: functional
Bacillus subtilis [7] = assay: Antibacterial activity against Bacillus subtilis; type: functional
Staphylococcus aureus [8] = assay: Antibacterial activity against Staphylococcus aureus; type: functional
Pseudomonas aeruginosa [9] = assay: Antibacterial activity against Pseudomonas aeruginosa assessed as zone of inhibition; type: functional
[10] = molecular target: T1, Prostaglandin G/H synthase 1 (Ovis aries, UniProt P05979); assay: Inhibition of ovine COX-1
T1 sequence (P05979 whole entry): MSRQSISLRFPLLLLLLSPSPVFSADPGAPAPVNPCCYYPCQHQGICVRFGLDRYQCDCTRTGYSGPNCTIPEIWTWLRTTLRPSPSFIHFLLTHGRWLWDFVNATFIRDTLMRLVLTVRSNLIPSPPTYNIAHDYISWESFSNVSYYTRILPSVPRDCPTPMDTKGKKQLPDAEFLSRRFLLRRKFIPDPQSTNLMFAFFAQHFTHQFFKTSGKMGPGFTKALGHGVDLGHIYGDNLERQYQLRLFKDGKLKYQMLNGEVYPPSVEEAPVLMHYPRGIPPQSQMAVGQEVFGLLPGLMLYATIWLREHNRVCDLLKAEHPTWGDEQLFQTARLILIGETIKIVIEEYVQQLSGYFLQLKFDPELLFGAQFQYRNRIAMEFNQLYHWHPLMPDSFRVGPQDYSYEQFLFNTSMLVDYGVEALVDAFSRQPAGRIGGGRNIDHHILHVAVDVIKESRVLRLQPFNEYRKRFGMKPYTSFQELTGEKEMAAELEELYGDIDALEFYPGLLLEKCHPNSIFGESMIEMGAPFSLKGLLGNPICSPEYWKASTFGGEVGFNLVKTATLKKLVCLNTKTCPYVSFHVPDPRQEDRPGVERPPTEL

[11] = Inhibition of soybean 15-LOX; parameters: species or system Glycine max
Salmonella enterica = assay: Antibacterial activity against Salmonella enterica assessed as zone of inhibition; type: functional
Aspergillus niger [12] = assay: Antifungal activity against Aspergillus niger by dry weight method; type: functional
Aspergillus flavus = assay: Antifungal activity against Aspergillus flavus by dry weight method; type: functional; parameters: unit not given beside the values
Fusarium verticillioides = assay: Antifungal activity against Fusarium moniliforme by dry weight method; type: functional

**Q.** What does the source list for N#Cc1c(-c2ccccc2)nc2c(/N=N/c3cccc(C(F)(F)F)c3)c(N)nn2c1O?
**A.** IC50 (MCF7): 2.09 µg/mL (≈ 4.94 µM); IC50 (HepG2): 2.41 µg/mL (≈ 5.69 µM); IC50 (HCT-116): 2.39 µg/mL (≈ 5.65 µM)

**Q.** For COc1cc(-c2cc(C(=O)N3CCN(C(=O)c4ccccc4NCc4cccs4)CC3)nc3cc(-c4ccccc4)nn23)cc(OC)c1OC, which IC50 (HeLa) is on record?
**A.** 1460 nM

**Q.** What about the IC50 (SiHa) of the same molecule?
**A.** 1560 nM

**Q.** For C[C@@H]1[C@H](O)[C@@H](C)/C=C/C=C/C=C/C=C/C=C/C=C/C=C/[C@H](O[C@@H]2O[C@H](C)[C@@H](O)[C@H](N)[C@@H]2O)C[C@@H]2O[C@](O)(C[C@@H](O)C[C@@H](O)[C@H](O)CC[C@@H](O)C[C@@H](O)CC(=O)O[C@H]1C)C[C@H](O)[C@H]2C(=O)O [AMPHOTERICIN B], which “inhibition zone (IZ)” value (Aspergillus niger [1]) is on record?
**A.** 23.3 mm

**Q.** Which IC50 (HeLa) does the source give for COc1cc(-c2cc(C(=O)N3CCN(C(=O)c4ccccc4NCc4ccco4)CC3)nc3cc(-c4ccccc4)nn23)cc(OC)c1OC here?
**A.** 1540 nM

**Q.** What about the IC50 (SiHa) of the same molecule?
**A.** 1610 nM

**Q.** Which IC50 (MCF7) does the source give for CC(=O)O[C@H]1C(=O)[C@@]2(C)[C@H]([C@H](OC(=O)c3ccccc3)[C@]3(O)C[C@H](OC(=O)[C@H](O)[C@@H](NC(=O)c4ccccc4)c4ccccc4)C(C)=C1C3(C)C)[C@]1(OC(C)=O)CO[C@@H]1C[C@@H]2O [PACLITAXEL] here?
**A.** 4.7 µg/mL (≈ 5.5 µM)

**Q.** What about the IC50 (HepG2) of the same molecule?
**A.** 4.3 µg/mL (≈ 5.04 µM)

**Q.** What about the IC50 (HCT-116) of the same molecule?
**A.** 2.9 µg/mL (≈ 3.4 µM)

**Q.** Which IC50 (SiHa) does the source give for COc1ccc(-c2cc(-c3nn4cc(-c5ccncc5)cnc4c3S(=O)(=O)c3ccc([N+](=O)[O-])cc3)on2)cc1 here?
**A.** 2100 nM

**Q.** Which results are given for Nc1nc2c(/N=N/c3ccc(C(F)(F)F)cc3)c(N)nn2c(N)c1/N=N/c1ccc(S(=O)(=O)Nc2ncccn2)cc1?
**A.** IC50 (MCF7): 1.4 µg/mL (≈ 2.34 µM); IC50 (HepG2): 3.4 µg/mL (≈ 5.69 µM); IC50 (HCT-116): 2.4 µg/mL (≈ 4.02 µM)

**Q.** Which “inhibition zone (IZ)” value (Escherichia coli [2]) does the source give for Cc1nc2c(c(C)nc3c(C#N)cnn32)c(Cl)c1CCCl here?
**A.** 15.3 mm

**Q.** What about the “inhibition zone (IZ)” value (Bacillus subtilis [3]) of the same molecule?
**A.** 15.1 mm

**Q.** What about the “inhibition zone (IZ)” value (Aspergillus niger [1]) of the same molecule?
**A.** 17.2 mm

**Q.** For COc1ccc(-c2cc(-c3nn4cc(-c5ccncc5)cnc4c3S(=O)(=O)c3ccc(OC)cc3)on2)cc1, which IC50 (SiHa) is on record?
**A.** 1770 nM

**Q.** For CC1=CC(c2ccccc2)n2nc(-c3ccc(C)cc3)cc2N1 (stereo unspecified), which IC50 (MCF7) is on record?
**A.** 23.8 µg/mL (≈ 79 µM)

**Q.** What about the IC50 (HepG2) of the same molecule?
**A.** 10.3 µg/mL (≈ 34.2 µM)

**Q.** What about the IC50 (HCT-116) of the same molecule?
**A.** 22.5 µg/mL (≈ 74.7 µM)

**Q.** With COc1ccc(Nc2nn3c(N)c(C#N)c(-c4ccc(C)cc4)nc3c2C(=O)Nc2ccc(Cl)cc2)cc1 as the molecule, how does the “inhibition zone (IZ)” value (Candida albicans) read?
**A.** 18 mm

**Q.** And the “inhibition zone (IZ)” value (Aspergillus niger [1])?
**A.** 15 mm

**Q.** Which results are given for CN(C)[C@@H]1C(O)=C(C(N)=O)C(=O)[C@@]2(O)C(O)=C3C(=O)c4c(O)cccc4[C@@](C)(O)[C@H]3C[C@@H]12 [TETRACYCLINE]?
**A.** inhibition zone (IZ) (Escherichia coli [2]): 23 mm; MIC (Pseudomonas aeruginosa [4]): 62.5 µg/mL (≈ 141 µM); inhibition zone (IZ) (Staphylococcus aureus [5]): 25 mm; MIC (Escherichia coli [6]): 15.6 µg/mL (≈ 35.1 µM); MIC (Bacillus subtilis [7]): 31.2 µg/mL (≈ 70.3 µM); MIC (Staphylococcus aureus [8]): 62.5 µg/mL (≈ 141 µM); inhibition zone (IZ) (Bacillus subtilis [3]): 25 mm; inhibition zone (IZ) (Pseudomonas aeruginosa [9]): 20 mm

**Q.** Which results are given for O=C(c1cc(-c2ccc([N+](=O)[O-])cc2)n2nc(-c3ccccc3)cc2n1)N1CCN(C(=O)c2ccccc2NCc2cccc3c2OCO3)CC1?
**A.** IC50 (HeLa): 1990 nM; IC50 (SiHa): 1990 nM

**Q.** For CN[C@@H]1[C@H](O[C@H]2[C@H](O[C@H]3[C@H](O)[C@@H](O)[C@H](N=C(N)N)[C@@H](O)[C@@H]3N=C(N)N)O[C@@H](C)[C@]2(O)C=O)O[C@@H](CO)[C@H](O)[C@H]1O [STREPTOMYCIN], which “inhibition zone (IZ)” value (Escherichia coli [2]) is on record?
**A.** 16.4 mm

**Q.** And the MIC (Escherichia coli [6])?
**A.** 5 µg/mL (≈ 8.6 µM)

**Q.** What about the MIC (Bacillus subtilis [7]) of the same molecule?
**A.** 5 µg/mL (≈ 8.6 µM)

**Q.** And the “inhibition zone (IZ)” value (Bacillus subtilis [3])?
**A.** 16.2 mm

**Q.** For COc1ccnc(Nc2nn3c(SC)c(C#N)c(N)nc3c2C#N)c1, which IC50 [10] is on record?
**A.** 10.2 µM

**Q.** What about the IC50 [11] of the same molecule?
**A.** 27.3 µM

**Q.** Which MIC (Escherichia coli [6]) does the source give for Cc1cc(NN2C(=O)CCC2=O)n2ncc(C#N)c2n1 here?
**A.** 10 µg/mL (≈ 37 µM)

**Q.** And the MIC (Bacillus subtilis [7])?
**A.** 10 µg/mL (≈ 37 µM)

**Q.** Which “inhibition zone (IZ)” value (Salmonella enterica) does the source give for O=C(Nc1ccccc1)c1cnn2c(-c3ccccn3)ccnc12 here?
**A.** 11 mm

**Q.** With CSc1nn2c(-c3ccccc3)c(C#N)c(=O)[nH]c2c1-c1nc2ccccc2n1C as the molecule, how does the Activity (Aspergillus niger [12]) read?
**A.** 0.43

**Q.** What about the Activity (Aspergillus flavus) of the same molecule?
**A.** 0.33

**Q.** And the Activity (Fusarium verticillioides)?
**A.** 0.16

**Q.** For NC(=O)c1c(Nc2ccc(Br)cc2)nn2c(-c3ccc(Br)cc3)ccnc12, which “inhibition zone (IZ)” value (Escherichia coli [2]) is on record?
**A.** 9 mm

**Q.** And the “inhibition zone (IZ)” value (Staphylococcus aureus [5])?
**A.** 9 mm

**Q.** And the “inhibition zone (IZ)” value (Bacillus subtilis [3])?
**A.** 9 mm

**Q.** What about the “inhibition zone (IZ)” value (Pseudomonas aeruginosa [9]) of the same molecule?
**A.** 9 mm

**Q.** Which “inhibition zone (IZ)” value (Salmonella enterica) does the source give for O=C(Nc1ccccc1)c1cnn2ccc(-c3ccccn3)nc12 here?
**A.** 20 mm

**Q.** With COc1ccc(-c2cc(-c3nn4cc(-c5ccncc5)cnc4c3S(=O)(=O)c3cc(OC)cc(OC)c3)on2)cc1 as the molecule, how does the IC50 (SiHa) read?
**A.** 990 nM

**Q.** What does the source list for COc1ccc(-c2cc(C(=O)N3CCN(C(=O)c4ccccc4NCc4cccs4)CC3)nc3cc(-c4ccccc4)nn23)cc1OC?
**A.** IC50 (HeLa): 1990 nM; IC50 (SiHa): 1810 nM

**Q.** For CC(Cc1ccc(O)c(O)c1)C(C)Cc1ccc(O)c(O)c1 (stereo unspecified) [NORDIHYDROGUAIARETIC ACID], which IC50 [11] is on record?
**A.** 8.5 µM

**Q.** For COc1ccc(Nc2nn3c(-c4ccccc4)ccnc3c2C(N)=O)cc1, which MIC (Pseudomonas aeruginosa [4]) is on record?
**A.** 7.81 µg/mL (≈ 21.7 µM)

**Q.** What about the MIC (Escherichia coli [6]) of the same molecule?
**A.** 15.6 µg/mL (≈ 43.5 µM)

**Q.** And the MIC (Bacillus subtilis [7])?
**A.** 3.9 µg/mL (≈ 10.9 µM)

**Q.** What about the MIC (Staphylococcus aureus [8]) of the same molecule?
**A.** 7.81 µg/mL (≈ 21.7 µM)

**Q.** Which IC50 (MCF7) does the source give for CC1=CC(c2ccccc2)n2nc(C)cc2N1 (stereo unspecified) here?
**A.** 23.5 µg/mL (≈ 104 µM)

**Q.** What about the IC50 (HepG2) of the same molecule?
**A.** 24.8 µg/mL (≈ 110 µM)

**Q.** What about the IC50 (HCT-116) of the same molecule?
**A.** 22.6 µg/mL (≈ 100 µM)

**Q.** With CSc1nn2c(C)cc(C)nc2c1-c1nc2ccccc2n1C as the molecule, how does the “inhibition zone (IZ)” value (Escherichia coli [2]) read?
**A.** 9 mm

**Q.** What about the Activity (Aspergillus niger [12]) of the same molecule?
**A.** 0.27

**Q.** And the Activity (Aspergillus flavus)?
**A.** 0.3

**Q.** And the Activity (Fusarium verticillioides)?
**A.** 0.11
